# Assay results: ChEMBL document CHEMBL1201862, “PubChem BioAssay data set” (2004)
# Active and inactive are the calls of the source.
# Key:
# [1] = cytotoxicity toward NIH3T3 fibroblasts, dose response, counter-screen, cell-based, ATP luminescence, mouse fibroblasts (AID 2010); format: functional;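 further: cells exposed to compound for about 90 hours before reading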
# cells [2] = assay: cells
# [3] = inhibitors of intracellular T. cruzi replication, confirmation, NIH3T3 host cells, beta-gal luminescence (AID 2044); format: functional, cell-based;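 further: intracellular parasites grown in NIH/3T3 mouse fibroblasts as host cells; luminescent beta-galactosidase reporter signal from transgenic T. cruzi replicating inside host cells; inhibitors lower the luminescence signal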
# H4 = assay: Luminescence Cell-Based Dose Response HTS to Identify Activators of 5'UTR Stem-Loop Driven Prion Protein mRNA Translation in H4 Neuroglioblastoma Cells. [Related pubchem assays: 1829 (Project Summary), 1814 (Primary HTS)]; format: functional; conditions: Homo sapiens
# [4] = Luminescence Cell-Based Dose Response HTS to Identify Activators of Luciferase Translation or Activity in H4 […] Cells. [Related pubchem assays: 1829 (Project Summary), 1814 (Primary HTS)]; format: functional
# [5] = biological target: T1, Replicative DNA helicase DnaB (Mycobacterium tuberculosis, UniProt P9WMR3); assay: DnaB intein splicing inhibitors, dose response, biochemical, cell-free fluorescence (AID 449749); format: functional
# T1 sequence (P9WMR3 whole entry): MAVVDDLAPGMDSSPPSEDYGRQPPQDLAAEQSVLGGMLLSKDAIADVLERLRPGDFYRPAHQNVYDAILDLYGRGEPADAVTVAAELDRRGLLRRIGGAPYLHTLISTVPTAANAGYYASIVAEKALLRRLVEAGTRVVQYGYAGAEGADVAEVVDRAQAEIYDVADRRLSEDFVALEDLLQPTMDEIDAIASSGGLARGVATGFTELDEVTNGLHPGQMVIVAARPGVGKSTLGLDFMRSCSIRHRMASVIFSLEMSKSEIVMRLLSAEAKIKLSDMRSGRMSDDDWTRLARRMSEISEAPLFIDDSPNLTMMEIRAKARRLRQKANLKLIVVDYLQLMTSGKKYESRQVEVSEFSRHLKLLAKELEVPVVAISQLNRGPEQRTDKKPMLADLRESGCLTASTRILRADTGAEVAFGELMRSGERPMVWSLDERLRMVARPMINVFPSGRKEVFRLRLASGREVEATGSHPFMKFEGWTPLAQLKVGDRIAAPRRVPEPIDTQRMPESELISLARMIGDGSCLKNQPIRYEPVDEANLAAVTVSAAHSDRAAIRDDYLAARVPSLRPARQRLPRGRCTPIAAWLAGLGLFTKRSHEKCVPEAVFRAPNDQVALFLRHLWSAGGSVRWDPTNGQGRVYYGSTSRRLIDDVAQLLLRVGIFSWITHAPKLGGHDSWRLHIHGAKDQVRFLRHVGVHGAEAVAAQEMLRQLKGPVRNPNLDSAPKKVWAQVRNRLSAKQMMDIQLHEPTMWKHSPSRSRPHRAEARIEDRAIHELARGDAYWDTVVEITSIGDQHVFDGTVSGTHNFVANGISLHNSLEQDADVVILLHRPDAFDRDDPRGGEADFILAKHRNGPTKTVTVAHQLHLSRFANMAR
# INS1 = assay: beta cell apoptosis inhibitors, cytokine rescue, dose response, luminescence, retest (AID 449756); format: functional, cell-based; conditions: Rattus norvegicus;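 further: cell death triggered by IL-1 beta plus TNF-alpha plus IFN-gamma mixture; protective hits raise ATP signal compared with cytokine alone wells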
# Protein RecA = biological target: T2, Protein RecA (Mycobacterium tuberculosis, UniProt P9WHJ3); assay: Fluorescence Cell-Free Homogeneous Dose Retest to Identify Inhibitors of RecA-Intein Splicing Activity. [Related pubchem assays (depositor defined):AID2097, AID2223, AID489010, AID492950]; format: functional
# T2 sequence (P9WHJ3 whole entry): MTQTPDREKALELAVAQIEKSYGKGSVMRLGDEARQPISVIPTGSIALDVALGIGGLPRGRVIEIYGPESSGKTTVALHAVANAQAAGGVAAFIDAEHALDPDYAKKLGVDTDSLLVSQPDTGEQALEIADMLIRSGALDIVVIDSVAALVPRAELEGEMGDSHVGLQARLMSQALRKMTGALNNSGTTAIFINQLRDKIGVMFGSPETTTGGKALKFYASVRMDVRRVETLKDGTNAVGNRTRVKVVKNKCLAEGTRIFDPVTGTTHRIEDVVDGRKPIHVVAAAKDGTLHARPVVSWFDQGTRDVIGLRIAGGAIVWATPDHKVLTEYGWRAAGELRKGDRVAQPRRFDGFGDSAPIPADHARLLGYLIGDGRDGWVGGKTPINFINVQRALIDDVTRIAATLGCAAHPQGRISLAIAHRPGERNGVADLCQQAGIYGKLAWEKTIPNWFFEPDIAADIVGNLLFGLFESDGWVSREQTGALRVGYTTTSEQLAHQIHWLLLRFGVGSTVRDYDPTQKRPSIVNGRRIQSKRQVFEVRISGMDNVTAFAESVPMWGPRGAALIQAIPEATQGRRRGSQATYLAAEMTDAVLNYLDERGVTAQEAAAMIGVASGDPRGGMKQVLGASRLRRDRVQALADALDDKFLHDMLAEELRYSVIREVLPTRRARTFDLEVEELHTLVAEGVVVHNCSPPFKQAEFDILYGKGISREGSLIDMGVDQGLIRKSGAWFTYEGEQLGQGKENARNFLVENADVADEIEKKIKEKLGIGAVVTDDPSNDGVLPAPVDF
# [6] = Luminescence Cell-Based Dose Retest to Confirm Inhibitors of Cancer Stem Cells. [Related pubchem assays (depositor defined):AID2717, AID2721]; format: functional; conditions: Homo sapiens
# [7] = control 3'UTR Renilla luciferase suppression, dose response, counter-screen for Shn3 inhibitor project, cell-based, Clone20-Shn3RL, cherry-picked (AID 624133); format: functional
# [8] = HepG2 cell cytotoxicity, dose response, cytotoxicity control for Shn3 inhibitor project, CellTiter-Glo, cherry-picked (AID 624134); format: functional, cell-based
# [9] = Shn3 3'UTR reporter inhibitors, dose response, cell-based, Clone20 osteoblasts, firefly luciferase, cherry-picked (AID 624132); format: functional;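 further: firefly luciferase luminescence from reporter carrying the Shn3 3'UTR in osteoblasts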
# [10] = biological target: T3, Corticotropin-releasing factor receptor 2/Corticotropin-releasing factor-binding protein (Homo sapiens, UniProt P24387+Q13324); assay: Dose Response confirmation of uHTS hits for small molecule antagonists of the CRF-binding protein and CRF-R2 receptor complex.; format: functional; conditions: read-out: IC50_Mean
# T3 sequence (Q13324 whole entry): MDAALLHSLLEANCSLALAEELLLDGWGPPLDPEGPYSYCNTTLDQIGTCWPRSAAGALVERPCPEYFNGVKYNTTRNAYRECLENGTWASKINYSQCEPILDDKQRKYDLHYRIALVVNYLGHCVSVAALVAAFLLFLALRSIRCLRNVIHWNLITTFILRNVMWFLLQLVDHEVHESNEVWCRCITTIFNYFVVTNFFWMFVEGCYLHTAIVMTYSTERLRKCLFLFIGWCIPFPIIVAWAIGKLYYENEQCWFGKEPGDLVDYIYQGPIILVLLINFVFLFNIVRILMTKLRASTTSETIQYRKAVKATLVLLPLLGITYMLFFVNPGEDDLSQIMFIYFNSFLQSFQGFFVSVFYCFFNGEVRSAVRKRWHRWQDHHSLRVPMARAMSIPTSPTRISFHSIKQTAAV
# T3 sequence (P24387 whole entry): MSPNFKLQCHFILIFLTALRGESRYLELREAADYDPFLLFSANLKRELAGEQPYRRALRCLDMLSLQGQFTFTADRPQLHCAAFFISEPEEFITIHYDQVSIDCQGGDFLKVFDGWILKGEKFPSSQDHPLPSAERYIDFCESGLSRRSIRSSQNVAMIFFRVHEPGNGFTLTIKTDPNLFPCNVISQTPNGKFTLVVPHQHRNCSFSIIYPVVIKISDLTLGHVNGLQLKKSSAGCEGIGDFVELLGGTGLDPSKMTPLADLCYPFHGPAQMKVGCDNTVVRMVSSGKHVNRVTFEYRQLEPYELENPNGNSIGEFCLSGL
# [11] = biological target: T3, Corticotropin-releasing factor receptor 2/Corticotropin-releasing factor-binding protein; assay: activators of CRF receptor 2 with binding protein – uHTS hits, confirmation (AID 602473); format: functional; conditions: read-out: EC50_Mean
# Paired box protein Pax-8 = Paired box protein Pax-8 (Homo sapiens, UniProt Q06710); assay: inhibitors of PAX8-driven TPO luciferase reporter, dose response, RMG-I cells, cherry-pick (AID 687027); format: functional, cell-based;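 further: luciferase reporter driven by Pax8 target thyroperoxidase promoter measured by SteadyGlo luminescence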
# cells [12] = format: functional, cell-based
# cells [13] = format: functional, cell-based; remark: listed apart in the source
# [14] = biological target: T4, Heat shock factor protein 1 (Mus musculus, UniProt P38532); assay: HSF1 potentiators in luciferase reporter cells, confirmation, cell-based, NIH3T3, luminescence, dose retest (AID 435004); format: functional;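 further: stress induced by proteasome inhibitor MG132 added 30 min after compound; luciferase reporter driven by HSF1 response element in NIH3T3 cells; actives raise luminescence as potentiators of the MG132 stress response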
# T4 sequence (P38532 whole entry): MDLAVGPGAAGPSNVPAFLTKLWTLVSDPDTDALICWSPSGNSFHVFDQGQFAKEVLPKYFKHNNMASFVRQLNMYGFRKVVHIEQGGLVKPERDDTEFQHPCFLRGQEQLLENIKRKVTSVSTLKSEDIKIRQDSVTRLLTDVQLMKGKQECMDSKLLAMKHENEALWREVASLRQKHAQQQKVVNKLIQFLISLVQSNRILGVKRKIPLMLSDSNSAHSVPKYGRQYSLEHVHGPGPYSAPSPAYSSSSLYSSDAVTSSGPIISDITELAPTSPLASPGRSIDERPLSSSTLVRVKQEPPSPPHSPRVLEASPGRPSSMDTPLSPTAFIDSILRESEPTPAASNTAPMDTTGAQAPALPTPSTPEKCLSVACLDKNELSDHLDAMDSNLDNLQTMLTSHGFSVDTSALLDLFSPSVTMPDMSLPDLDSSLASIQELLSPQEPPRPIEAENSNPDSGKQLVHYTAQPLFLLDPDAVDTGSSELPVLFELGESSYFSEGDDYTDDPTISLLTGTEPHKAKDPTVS
# Sequence of Paired box protein Pax-8 (Q06710 whole entry): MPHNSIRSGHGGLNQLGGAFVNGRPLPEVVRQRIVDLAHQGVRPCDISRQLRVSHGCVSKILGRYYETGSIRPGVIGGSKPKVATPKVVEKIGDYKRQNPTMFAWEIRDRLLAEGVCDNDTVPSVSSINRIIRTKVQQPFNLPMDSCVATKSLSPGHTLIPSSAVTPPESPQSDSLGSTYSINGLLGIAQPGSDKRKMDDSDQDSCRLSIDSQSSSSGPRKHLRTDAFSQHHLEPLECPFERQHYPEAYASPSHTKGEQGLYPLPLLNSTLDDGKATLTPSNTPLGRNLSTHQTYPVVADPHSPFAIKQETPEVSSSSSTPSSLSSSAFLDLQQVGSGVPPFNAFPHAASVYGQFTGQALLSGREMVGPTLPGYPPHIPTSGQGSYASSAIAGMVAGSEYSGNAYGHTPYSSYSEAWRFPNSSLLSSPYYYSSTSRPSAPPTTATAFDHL
structure (smiles),measurement,setting,value
CCOc1ccc(CN2CCCC(N3CCN(c4ccc(OC)cc4)CC3)C2)cc1 (configuration not stated),EC50,[1],> 60 µM (not active)
same,EC50,cells [2],42 nM (active)
same,EC50,[3],< 100 nM (active)
Cc1ccc2sc(N(CCCN(C)C)C(=O)c3ccc(S(=O)(=O)N4CCOCC4)cc3)nc2c1C,EC50,[1],> 60 µM (not active)
same,EC50,cells [2],408 nM (active)
same,EC50,[3],< 100 nM (active)
Cc1nn(-c2ccccc2)c(/N=C/c2ccccc2O)c1-c1ccccc1,EC50,H4,48.4 µM (active)
same,EC50,[4],45700 nM (active)
O=C(CC12CC3CC(CC(C3)C1)C2)N/N=C/c1ccc([N+](=O)[O-])o1,EC50,[1],> 60 µM (not active)
same,EC50,cells [2],19 nM (active)
same,EC50,[3],< 100 nM (active)
CCc1ccc(S(=O)(=O)Nc2ccc(O)c3ccccc23)cc1,AC50,[5],0.305 µM (active)
same,AC50,INS1,8.73 µM (active)
same,EC50,Protein RecA,0.0482 µM (active)
same,AC50,[6],5.13 µM (active)
CCCCNS(=O)(=O)c1ccc(S(=O)(=O)NCc2ccncc2)cc1,AC50,[7],23 µM (active)
same,AC50,[8],6.47 µM (active)
same,AC50,[9],2.4 µM (active)
Cc1cc(NC(=O)C23CC4CC(C2)CC(n2cnc([N+](=O)[O-])n2)(C4)C3)no1,EC50,[1],> 30 µM (not active)
same,EC50,cells [2],89 nM (active)
same,EC50,[3],< 100 nM (active)
COc1ccc(NC(=S)NCc2cccnc2)cc1,IC50,[10],9.74 µM (active)
same,EC50,[11],> 53 µM (inactive)
COc1ccc(/C=C2/CCc3ccccc3C2=O)cc1CN1CCOCC1,EC50,[1],> 60 µM (not active)
same,EC50,cells [2],245 nM (active)
same,EC50,[3],< 100 nM (active)
C[C@@H]1CCCCO[C@H](CN(C)Cc2ccc(Cl)c(Cl)c2)[C@H](C)CN([C@@H](C)CO)C(=O)c2cc(NC(=O)Nc3ccccc3)ccc2O1,AC50,Paired box protein Pax-8,8.42 µM (active)
O=C(NCCc1ccccc1)c1cc2sccc2n1Cc1ccccc1,EC50,cells [12],> 350 µM (not active)
same,EC50,cells [13],> 350 µM (not active)
CC(C)c1ccc(NC(=O)NC2CCCCC2)cc1,EC50,[4],114 nM (active)
CN(C)c1ccc2nsnc2c1[N+](=O)[O-],AC50,[5],> 380 µM (inactive)
same,EC50,Protein RecA,8.64 µM (active)
Cc1n[nH]c2c1C(c1ccoc1)C(C#N)=C(N)O2 (configuration not stated),AC50,[5],5.36 µM (active)
same,EC50,Protein RecA,2.25 µM (active)
CN(c1ccccc1)S(=O)(=O)c1cc(C(=O)OCC(=O)N2CCN(C(=O)c3ccco3)CC2)ccc1Cl,AC50,[7],30.6 µM (active)
same,AC50,[8],> 70 µM (inactive)
same,AC50,[9],62.9 µM (active)
Cc1n[nH]c2c1C(c1cc(Br)cs1)C(C#N)=C(N)O2 (configuration not stated),AC50,[5],12.7 µM (active)
same,EC50,Protein RecA,6.13 µM (active)
same,EC50,[14],14.6 µM (active)
CN(C)CCCNC(=O)c1ccccc1Oc1ccccc1,IC50,[10],> 47.1 µM (inactive)
same,EC50,[11],> 53 µM (inactive)
O=C(Nc1nc(-c2cccs2)c(-c2cccs2)s1)C1(c2ccccc2)CC1,AC50,Paired box protein Pax-8,51.1 µM (active)
CCOC(=O)c1cc(S(=O)(=O)Nc2ccc(F)cc2F)cn1C,IC50,[10],> 47.1 µM (inactive)
same,EC50,[11],> 53 µM (inactive)
COc1cccc(NC(=O)COC(=O)c2ccccc2C(=O)N2CCN(c3ccccc3)CC2)c1,IC50,[10],> 47.1 µM (inactive)
same,EC50,[11],> 53 µM (inactive)
COc1ccc(CN2CCNC(=O)C2CC(=O)N(C)CC2CCOCC2)cc1OC (configuration not stated),EC50,cells [12],> 350 µM (not active)
same,EC50,cells [13],> 350 µM (not active)
O=[N+]([O-])c1cccc2c([As](=O)(O)O)cccc12,AC50,[5],16.4 µM (active)
same,EC50,Protein RecA,10.1 µM (active)
Cc1c(C(=O)NCc2cccnc2)oc2ccccc12,IC50,[10],> 47.1 µM (inactive)
same,EC50,[11],> 53 µM (inactive)
COCc1nnc(NC(=O)c2cc(Cl)ccc2OC)s1,EC50,cells [12],> 350 µM (not active)
same,EC50,cells [13],> 350 µM (not active)
Cn1c(C(=O)NCC2CCCO2)cc2oc3ccccc3c21 (configuration not stated),EC50,H4,47 µM (active)
same,EC50,[4],289 nM (active)
CNc1nc(Cl)nc(Nc2ccccc2)n1,IC50,[10],> 47.1 µM (inactive)
same,EC50,[11],> 53 µM (inactive)
Cc1ccc(S(=O)(=O)N2CCc3ccccc3CC2)cc1,AC50,[7],3.03 µM (active)
same,AC50,[8],44.8 µM (active)
same,AC50,[9],3.29 µM (active)
